Assay results as given in the NIST ThermoML archive (doi:10.1021/je700260f).

Settings: 303.14 K, Liquid, Vibrating tube method

FC(C(F)(F)F)C(F)(F)F [1,1,1,2,3,3,3-heptafluoropropane]
Settings	mass density [kg/m3]
14797 kPa	1456.7
14835 kPa	1456.8
17693 kPa	1469.8
21659 kPa	1486
21693 kPa	1486.3
21731 kPa	1486.4
21764 kPa	1486.4
21797 kPa	1486.6
21835 kPa	1486.9
21869 kPa	1486.9
21906 kPa	1486.9
21939 kPa	1487.2
21972 kPa	1487.3
22005 kPa	1487.5
22039 kPa	1487.5
22067 kPa	1487.7
22096 kPa	1487.7
22140 kPa	1487.9
22178 kPa	1488.1
22208 kPa	1488.1
22251 kPa	1488.4
22280 kPa	1488.4
22361 kPa	1488.8
22404 kPa	1488.9
23559 kPa	1493.4
23594 kPa	1493.4
23621 kPa	1493.5
23651 kPa	1493.8
23681 kPa	1493.8
26459 kPa	1504
26487 kPa	1503.9
26573 kPa	1504.3
26602 kPa	1504.5
26627 kPa	1504.5
26661 kPa	1504.7
26685 kPa	1504.6
27097 kPa	1506
27130 kPa	1506.1
27159 kPa	1506.3
27188 kPa	1506.5
27217 kPa	1506.5
27398 kPa	1507.2
27427 kPa	1507.2
27494 kPa	1507.5
27528 kPa	1507.5
27562 kPa	1507.7
27605 kPa	1507.8
27634 kPa	1507.9
27671 kPa	1508
27705 kPa	1508.1
27735 kPa	1508.3
27769 kPa	1508.4
27803 kPa	1508.5
27840 kPa	1508.4
27861 kPa	1508.6
27887 kPa	1508.9
27917 kPa	1508.9
27946 kPa	1509
27976 kPa	1509.1
28006 kPa	1509.2
28040 kPa	1509.3
28065 kPa	1509.5
28095 kPa	1509.5
28120 kPa	1509.6
28158 kPa	1509.6
28184 kPa	1509.9
28206 kPa	1510
28241 kPa	1510
28271 kPa	1510.1
28300 kPa	1510.2
28330 kPa	1510.4
28355 kPa	1510.5
28394 kPa	1510.6
31947 kPa	1522.2
31984 kPa	1522.4
32012 kPa	1522.5
32053 kPa	1522.5
32086 kPa	1522.6
32123 kPa	1522.8
32155 kPa	1522.9
32187 kPa	1522.9
32215 kPa	1523
32251 kPa	1523.2
32280 kPa	1523.2
32322 kPa	1523.4
32345 kPa	1523.3
32382 kPa	1523.4
32418 kPa	1523.7
32449 kPa	1523.8
32481 kPa	1523.9
32513 kPa	1524
32542 kPa	1524.1
32574 kPa	1524.1
32603 kPa	1524.3
32646 kPa	1524.3
32674 kPa	1524.4
32713 kPa	1524.6
32736 kPa	1524.6
32764 kPa	1524.8
32792 kPa	1524.9
32830 kPa	1524.9
32858 kPa	1525.1
